# Assay results: patent US8809275B2, “Peptoids and methods for treating alzheimer's disease” (The Board of Trustees of the University of Arkansas, priority 2011, dated 2014)
# Non-standard residues stand in square brackets, D forms with d. Residues, ends and D or L forms follow the SMILES beside them. N(1S-Me-propyl)Gly = CC[C@H](C)NCC(=O)O; Nspe = C[C@H](NCC(=O)O)c1ccccc1; Nlys = NCCCCNCC(=O)O
# Biological target: T1, Aβ fibrils (Homo sapiens, UniProt P05067)
# T1 construct: aliquots of Aβ(1-40) monomer, purified via size exclusion chromatography on Superdex 75
# T1 sequence (P05067 672-711): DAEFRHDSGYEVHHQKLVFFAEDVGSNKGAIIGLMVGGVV
# Test: Dot blot assay with LOC antibody binding to Aβ fibrils
# Assay type: biochemical
# Experimental: The results of the ThT assay were confirmed using a dot blot assay with antibodies capable of binding to Aβ fibrils, but not Aβ monomers or pre-fibrils (LOC, available from Millipore). Thus, reduction of signal in the dot blot as compared to control is indicative of the peptoid blocking fibril formation. The intensity of the dot blot signal detecting the binding of the LOC antibody to the Aβ fibrils after incubation with a control was set to 100% to indicate maximal fibril formation. This can then be compared to the intensity of the LOC antibody dot blot signal after incubation of the Aβ with each of the peptoids. A reduction in the percent of antibody binding is indicative of inhibition of aggregation of Aβ in the assay. […] To control for the signal being at the maximum intensity parallel samples were diluted in half with 40 mM Tris buffer before being blotted (1:2). After 2 hours of incubation, none of the peptoids were capable of inhibiting aggregation of Aβ at a 1:1 dilution, likely because the antibody signal is too saturated to detect any effect of the peptoids.
smiles,measurement,setting,value
CC[C@H](C)N(CC(=O)N(CC(=O)N(CC(=O)N(CC(=O)N(CC(=O)N(CC(=O)N(CC(N)=O)[C@@H](C)c1ccccc1)[C@@H](C)c1ccccc1)[C@@H](C)CC)[C@@H](C)c1ccccc1)[C@@H](C)c1ccccc1)[C@@H](C)CC)C(=O)CNCCCCN [Peptoid 2] (H-[Nlys][N(1S-Me-propyl)Gly][N(1S-Me-propyl)Gly][Nspe][Nspe][N(1S-Me-propyl)Gly][Nspe][Nspe]-NH2),"LOC antibody dot blot signal, percent of control (control = 100%)","Time 0 hr, dilution 1:1",73.03%
same,"LOC antibody dot blot signal, percent of control (control = 100%)","Time 0 hr, dilution 1:2",56.91%
same,"LOC antibody dot blot signal, percent of control (control = 100%)","Time 2 hr, dilution 1:1",108.61%
same,"LOC antibody dot blot signal, percent of control (control = 100%)","Time 2 hr, dilution 1:2",89.63%
